Tests used:
ERα (wild type) = target: T1, ERα (wild type) (Homo sapiens, UniProt P03372); assay: ERα (wild type) competition binding assay; details: recombinant ERα wild type, 3H-estradiol competition, n=3
T1 sequence (P03372 1-595): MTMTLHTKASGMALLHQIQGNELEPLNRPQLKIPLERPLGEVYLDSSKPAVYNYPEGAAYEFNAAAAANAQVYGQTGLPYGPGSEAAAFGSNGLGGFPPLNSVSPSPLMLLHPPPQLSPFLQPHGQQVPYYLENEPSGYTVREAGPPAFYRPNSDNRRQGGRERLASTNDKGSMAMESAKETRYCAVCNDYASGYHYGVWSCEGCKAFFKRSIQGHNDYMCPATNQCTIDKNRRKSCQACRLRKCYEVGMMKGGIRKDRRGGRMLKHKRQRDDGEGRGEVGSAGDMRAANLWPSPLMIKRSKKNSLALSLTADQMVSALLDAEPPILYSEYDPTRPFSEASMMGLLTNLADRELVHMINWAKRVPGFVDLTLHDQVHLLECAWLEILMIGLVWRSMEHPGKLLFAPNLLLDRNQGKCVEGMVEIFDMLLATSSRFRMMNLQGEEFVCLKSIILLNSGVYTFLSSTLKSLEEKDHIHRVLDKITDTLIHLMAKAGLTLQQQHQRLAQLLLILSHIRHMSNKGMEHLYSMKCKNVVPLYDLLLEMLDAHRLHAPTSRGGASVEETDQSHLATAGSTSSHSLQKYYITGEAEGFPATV
Procedure: The purpose of the following ER competition binding assays is to determine the binding affinity of a test compound against ERα (wild type) and ERα (Y537S mutant) See Fanning et al., “Estrogen receptor alpha somatic mutations Y537S and D538G confer breast cancer endocrine resistance by stabilizing the activating function-2 binding conformation,” eLife 2016; 5:e12792.
Run the competition binding assay in a buffer containing 50 mM HEPES, pH 7.5, 1.5 mM EDTA, 150 mM NaCl, 10% glycerol, 1 mg/mL ovalbumin, and 5 mM DTT, using 0.025 µCi per well ^3H-estradiol (118 Ci/mmol, 1 mCi/mL), 7.2 ng/well ERα (wild type), or 7.2 ng/well ERα (Y537S mutant). Add the test compound at 10 different concentrations ranging from 10,000 nM to 0.5 nM, and determine nonspecific binding in the presence of 1 μM of […]. Incubate the binding reaction (140 μL) for 4 hours at room temperature, and then add cold dextran-charcoal buffer (70 μL) (containing per 50 mL of assay buffer, 0.75 g of charcoal and 0.25 g of dextran) to each reaction. Mix the plates for 8 minutes on an orbital shaker at 4° C. and then centrifuge at 3000 rpm at 4° C. for 10 minutes. […] After an incubation of 2.5 hours, read the plates in a Wallac Microbeta counter. […]

[1] = Rat oral bioavailability assay; type: in vivo; details: plasma, Sprague-Dawley rats, IV 1 mg/kg, PO 10 mg/kg, read-out: oral bioavailability (% F)
Procedure: Administer the test compound to Sprague-Dawley rats IV at 1 mg/kg (using vehicles of either: 20% CAPTISOL© in 25 mM sodium phosphate buffer, pH2 quantum satis; or 25% DMA, 15% EtOH, 10% propylene glycol, 25% 2-pyrrolidone, and 25% purified water) and PO at 10 mg/kg (using a vehicle of 1% hydroxyethyl cellulose, 0.25% polysorbate 80, 0.05% Antifoam 1510-US, and purified water quantum satis). Collect serial blood samples at 0.08, 0.25, 0.5, 1, 2, 4, 8, and 12 hours post dose for IV bolus and at 0.25, 0.5, 1, 2, 4, 8, and 12 hours post dose after oral administration. After treatment with an EDTA […], obtain plasma by centrifugation and stored at −70° C. until analysis by LC-MS/MS. Determine the test compound concentration in plasma and upload into the Watson LIMS™ system where noncompartmental analysis is used to calculate Area Under the Curve (AUC) for both IV and PO arms. Calculate oral bioavailability (% F) via the following equation, % F=(AUCPO×DoseIV)/(AUCIV×DosePO)×100.

Ki (ERα (wild type)): 3.78 ± 0.74 nM
bioavailability [1]: 27%
Structure (SMILES): O=C(c1ccc(OCCN2CC(CF)C2)cc1)c1c(-c2ccc(C(F)(F)F)cc2F)cnc2cc(O)ccc12 [Example 1, (4-{2-[3-(Fluoromethyl)azetidin-1-yl]ethoxy}phenyl){3-[2-fluoro-4-(trifluoromethyl)phenyl]-7-hydroxyquinolin-4-yl}methanone]

Source: US12128040B2, “Selective estrogen receptor degraders” (Eli Lilly and Company, priority 2018, dated 2024)
